# Measurements: US5807837A, “Composition and method for the treatment or prophylaxis of viral infections using modified oligodeoxyribonucleotides” (Sankyo Company, Limited, priority 1993, dated 1998)
# Test system: non-HIV-1 infected MT-4 cells
# Assay: Cytotoxicity: inhibition of multiplication of non-HIV-1 infected MT-4 cells (MTT method)
# Assay type: cell-based
# Settings: 6 days culture, 50% inhibition of multiplication
# Method: HIV-1 infected MT-4 cells and non-HIV-1 infected MT-4 cells were suspended in serum culture media so that a concentration of […] cells/ml of each was attained. One hundred μl of a solution of stepwise diluted sample compound (dissolved in serum culture media), prepared in advance, was placed in each well of […] microtiter plates. Then, 100 μl of each of the above-mentioned cell suspensions was added to each well of microtiter plates, and their cells were cultured for 6 days in the presence of 5% carbon dioxide gas.
# As a control, HIV-1 infected MT-4 cells and non-HIV-1 infected MT-4 cells in which no sample compound was added were cultured in the same manner.
# After the cultivation, live cell number was measured based on the MTT(3-(4,5-dimethylthiazole-2-yl)-2,5-diphenyltetrazolium bromide) method (L. M. Green et al., J. Immunol, Methods, 70, 257-268(1984)). Then the cytopathic activity of HIV-1 was measured. With the cytopathic activity of HIV-1 infected MT-4 cells to which no sample compound was added as 100%, and the cytopathic activity of […] MT-4 cells to which no sample compound was added as 0%, the concentration of the specimen which inhibited the cytopathic activity of HIV-1 infected MT-4 cells by 50(IC50) was calculated. The cytotoxicity of the sample compound was determined as that concentration which inhibited the multiplication of non-HIV-1 infected MT-4 cells by 50% (CC50).
row,Substance,CC50 [µg/mL]
1,DMT--O--TGGGAGGT--OH [Example 72],> 100.0
2,DMT--O--CGCGG--OH [Example 48],> 100.0
3,DMT--O--TGGGAmGG [Example 79],> 100.0
4,DMT--O--TCGGAGG--OH [Example 75],40.0
5,DMT--O--CGGGG--OH [Example 45],> 100.0
6,DMT--O--TGGGT--OH [Example 57],100.0
7,DMT--O--TTGGGAGG--OH [Example 36],100.0
8,DMT--O--GGGGAGG--OH [Example 33],> 100.0
9,DMT--O--CGGGAGG--OH [Example 29],> 100.0
10,DMT--O--TTGGAGG--OH [Example 31],90.0
11,DMT--O--CTGGGAGG--OH [Example 37],> 100.0
12,DMT--O--TGGG--OH [Example 26],80.0
13,DMT--O--TGGGAGG--OH [Example 30],> 100.0
14,DMT--O--GTGGGAGG--OH [Example 77],> 100.0
15,DMT--O--TGGGG--OH [Example 28],> 100.0
16,DMT--O--TAGGAGG--OH [Example 71],37.0
17,DMT--O--TGCGAGG--OH [Example 32],> 100.0
18,DMT--O--TGGGCGCAG--OH [Example 73],> 100.0
19,DMT--O--TGGGA--OH [Example 27],95.0
20,DMT--O--GGGCGGGGC--OH [Example 70],60.0
21,DMT--O--CCG--OH [Example 74],> 100.0
22,DMT--O--TGGGC--OH [Example 58],50.0
23,DMT--O--AATGGGAGG--OH [Example 81],> 100.0
24,DMT--O--TGG--OH [Example 78],> 50.0
25,DMT--O--TGmCGAGG--OH [Example 76],> 100.0
26,DMT--O--mCGmCGAGG--OH [Example 35],> 100.0
27,DMT--O--mCGGGAGG--OH [Example 34],> 100.0
28,DMT--O--TGGGAGA--OH [Example 80],> 100.0
29,DMT--O--CGGGT--OH [Example 43],100.0
30,DMT-O-TGGGAG-OH [Example 25],> 100.0
